Reference: US20090215650A1, “SUBSTRATES WITH STABLE SURFACE CHEMISTRY FOR BIOLOGICAL MEMBRANE ARRAYS AND METHOD FOR FABRICATING THEREOF” (priority 2002, published 2009)

How the values were obtained:
[1] = target: Neurotensin receptor subtype I (human, NTR1) (Homo sapiens, UniProt P30989); assay: BT-NT binding to NTR1 arrays on coated glass slides, competition with unlabeled neurotensin; conditions: 2 nM BT-NT; for binding specificity of BT-NT: competition with 4 μM unlabeled neurotensin
Method: Neurotensin receptor subtype I (human, NTR1) was purchased from Perkin Elmer Life Sciences (Boston, Mass.) and was received as a membrane associated suspension in a buffer. Printing was carried out using a quill-pin printer (Cartesian Technologies Model PS 5000) equipped with software for programmable aspiration and dispensing. After printing the arrays were incubated in a humid chamber at room temperature for one hour, and then used for ligand binding experiments. Two different binding solutions, 2 nM BT-NT in binding buffer in either the absence or presence of neurotensin, were used to examine the total binding of fluorescently labeled neurotensin (2 nM BT-NT), and the specific inhibition of the binding of BT-NT in the presence of 4 μM unlabeled neurotensin. The binding buffer contained 50 mM Tris-HCl, pH 7.4, 10 mM MgCl2, 1 mM EDTA, 0.1% BSA. The incubation time for binding was one hour. After incubation, the slides were rinsed, dried, and examined using a Genipix scanner.
Glass slides were coated by incubating the slide with a 3 ml solution containing 1 mg/ml polymer (poly-lysine, 46 kDa, or polyethyleneimine, 50 kDa) in 0.1×PBS buffer for 30 minutes at room temperature, followed by rinsing with water and drying under nitrogen. […] Using a Telechem quill pin CMP5, we fabricated GPCR arrays.
Neurotensin receptor subtype 1 (human, NTR1) was purchased from Perkin Elmer Life Sciences (Boston, Mass.) and was received as a membrane associated suspension in a buffer. Printing was carried out using a quill-pin printer (Cartesian Technologies Model PS 5000) equipped with software for programmable aspiration and dispensing. After printing the arrays were incubated in a humid chamber at room temperature for one hour, and then used for ligand binding experiments. […] After incubation, the slides were rinsed, dried, and imaged in a fluorescence scanner. […]

streptavidin = streptavidin (Streptomyces avidinii, UniProt P22629); assay: Binding of cy3-streptavidin to biotin-x-DHPE lipid arrays in presence of BSA; conditions: BSA 0.01%-1%; DPPC/DMPC/2% biotin-x-DHPE arrays on GAPS slide
Method: Seven 5×5 arrays of DPPC/DMPC/2% biotin-x-DHPE were printed onto a single Corning GAPS slide (data not shown). After incubation 3 sets of lipid arrays were pre-incubated with TR-BSA before the addition of Cy3-streptavidin. A second set of 3 arrays was incubated with TR-BSA together with cy3-streptavidin, while one array was covered with a solution of cy3-streptavidin. After 30 minutes the slides were rinsed, dried and imaged. The cy5 channel signal was used to monitor the adsorption of TR-BSA, and the cy3 channel signal was used to monitor the binding of cy3-streptavidin.

[2] = two reactive surfaces (epoxy silane, thiol-silane)

Chain of Neurotensin receptor subtype I (human, NTR1) (P30989 whole entry): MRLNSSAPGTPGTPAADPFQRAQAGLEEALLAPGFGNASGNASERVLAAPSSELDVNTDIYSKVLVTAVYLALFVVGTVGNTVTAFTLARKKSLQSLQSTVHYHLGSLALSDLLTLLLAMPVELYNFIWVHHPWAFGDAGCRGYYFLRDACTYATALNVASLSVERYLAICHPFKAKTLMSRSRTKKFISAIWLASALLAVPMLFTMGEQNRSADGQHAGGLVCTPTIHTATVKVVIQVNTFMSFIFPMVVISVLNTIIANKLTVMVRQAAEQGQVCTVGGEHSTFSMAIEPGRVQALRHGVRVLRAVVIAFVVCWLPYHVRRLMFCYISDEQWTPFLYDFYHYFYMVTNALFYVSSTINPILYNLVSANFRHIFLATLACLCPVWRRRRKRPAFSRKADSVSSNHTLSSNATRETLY

binding specificity of BT-NT ([1]; poly-lysine and polyethyleneimine surfaces (both)) [%]	binding specificity of BT-NT [1, 2]	total binding signal [1, 2]	Substance	effect on background level (streptavidin)	effect on binding specificity of cy3-streptavidin (streptavidin)
~90	75-90%	relatively low	Bodipy-TMR-neurotensin [BT-NT]	–	–
–	–	–	bovine serum albumin [BSA]	reduces the background level in most cases	does not significantly decrease the binding specificity
